{"source": "patent US20190151418A1", "about": "“COMBINATION OF CALCIUM-PHOSPHATE-CONTAINING POROUS COMPOSITE AND PTH” (TOYOBO CO., LTD., priority 2016, published 2019)", "tested_on": "standardized full-thickness bone defect (diameter: about 9 mm) in the calvarium", "assay": "Test Example 1: rat calvarium bone defect, OCP/Col or β-TCP/Col implant + teriparatide subcutaneous injection", "format": "in vivo, Male Wistar rats", "source_text": "Male Wistar rats (12 weeks old) were each intraperitoneally anesthetized, and a skin incision and a periosteal incision were made in the calvarium part to expose the calvarium. A standardized full-thickness bone defect (diameter: about 9 mm), for which spontaneous recovery could not be expected, was created. Then, one disc-shaped OCP/Col produced in Production Example 2 or one disc-shaped β-TCP/Col produced in Production Example 3 was implanted therein. As the control, rats in which only a bone defect was created, and no sample was implanted (untreated group) were prepared. After the sample was implanted, the periosteum and skin were sutured, and the surgery was completed. […] In the rats of the teriparatide subcutaneous injection group, 10 μg/kg of the teriparatide prepared in Production Example 5 was subcutaneously injected immediately after surgery and every day thereafter. Subcutaneous injection was performed in such a manner that the thawed teriparatide solution was sucked by a 1-mL syringe (27G injection needle), the back skin was sterilized with a dilute Hibitane solution, and then a considerable amount of teriparatide solution was injected subcutaneously in the back. The observation period after surgery was 8 weeks for each group, and 5 rats were used in each period.\nFour weeks and eight weeks after surgery, tomography was carried out on the rats in the living state using an X-ray CT scanner for experimental animals (Latheta LCT-200, produced by Hitachi Aloka Medical, Ltd.) at a low X-ray tube voltage, and the state of new bone formation in the bone defect site was carefully examined. Similarly, after CT photography 8 weeks after surgery, the rats were euthanized under anesthesia with an excess amount of pentobarbital. The calvarium and surrounding tissue were taken, and immersed and fixed in 0.1 M phosphate-buffered 4% paraformaldehyde (pH 7.4). The extracted samples were photographed (20 kV, 5 mA) with a soft X-ray camera (CMBW-2, produced by Softex Co., Ltd.), and then decalcified with 10% EDTA to prepare paraffin samples. Then, tissue sections (thickness: 6 μm) cut in the frontal plane were prepared, and a histological search was performed by hematoxylin-eosin staining. Further, using the multiple tissue sections corresponding to the center of the defect of each sample, the ratio of new bone (n-Bone %) in the created defect was examined by histological quantification. Variance analysis, etc., were conducted using the average value and standard deviation of n-Bone % in each group, and a significance test was conducted. The significance level was set at 5%.", "key": {"[1]": {"conditions": "8 weeks after surgery, hematoxylin-eosin, PTH(+) = teriparatide 10 μg/kg s.c. every day, PTH(−) = none"}}}
{"smiles": "CC[C@H](C)[C@H](NC(=O)[C@H](CCC(=O)O)NC(=O)[C@H](CO)NC(=O)[C@@H](NC(=O)[C@@H](N)CO)C(C)C)C(=O)N[C@@H](CCC(N)=O)C(=O)N[C@@H](CC(C)C)C(=O)N[C@@H](CCSC)C(=O)N[C@@H](Cc1cnc[nH]1)C(=O)N[C@@H](CC(N)=O)C(=O)N[C@@H](CC(C)C)C(=O)NCC(=O)N[C@@H](CCCCN)C(=O)N[C@@H](Cc1cnc[nH]1)C(=O)N[C@@H](CC(C)C)C(=O)N[C@@H](CC(N)=O)C(=O)N[C@@H](CO)C(=O)N[C@@H](CCSC)C(=O)N[C@@H](CCC(=O)O)C(=O)N[C@@H](CCCN=C(N)N)C(=O)N[C@H](C(=O)N[C@@H](CCC(=O)O)C(=O)N[C@@H](Cc1c[nH]c2ccccc12)C(=O)N[C@@H](CC(C)C)C(=O)N[C@@H](CCCN=C(N)N)C(=O)N[C@@H](CCCCN)C(=O)N[C@@H](CCCCN)C(=O)N[C@@H](CC(C)C)C(=O)N[C@@H](CCC(N)=O)C(=O)N[C@@H](CC(=O)O)C(=O)N[C@H](C(=O)N[C@@H](Cc1cnc[nH]1)C(=O)N[C@@H](CC(N)=O)C(=O)N[C@@H](Cc1ccccc1)C(=O)O)C(C)C)C(C)C", "note": "[teriparatide]", "values": [{"measurement": "X-ray photographs of isolated bone defect sites (FIG. 1)", "setting": "8 weeks after surgery, PTH(+) = teriparatide 10 μg/kg s.c. every day", "result": "radiopaque images in the defects were equally scarce"}, {"measurement": "stained pathological specimens, high-magnification images (FIG. 4)", "setting": "[1]", "result": "thin new bone extended from the defect margins"}, {"measurement": "stained pathological specimens, low-magnification (×1.25) images (FIG. 3)", "setting": "[1]", "result": "thin bone tissue extending from the defect margins (▾) and connective tissue surrounding the bone tissue"}, {"measurement": "ratio of new bone (n-Bone %) in the defect", "setting": "8 weeks after surgery, histological quantification (FIG. 5), PTH(+) = teriparatide 10 μg/kg subcutaneously every day, PTH(−) = no injection, average ± standard deviation", "result": "31.1±10.2", "unit": "%"}, {"measurement": "X-ray photographs (cross sections) of calvarium shot with the rats alive (FIG. 2)", "setting": "PTH(+) = teriparatide 10 μg/kg s.c. every day", "result": "radiopaque images extending from the defect margins (∇) were observed; however, their thickness was less than that of the existing bone"}, {"measurement": "new bone formation (conclusion from FIGS. 1 to 5)", "setting": "teriparatide 10 μg/kg s.c. every day, 8 weeks", "result": "new bone formation was not observed"}]}
